Measurements reported in the NIST ThermoML archive (doi:10.1021/je8004062).

Test: mn = molality of the nth substance listed, in mol/kg
Conditions: 101 kPa, Liquid

[Cl-].[Cl-].[Cl-].[La+3] [lanthanum chloride] + O
Conditions | mass density, 293.15 K [kg/m3] | mass density, 298.15 K [kg/m3] | mass density, 303.15 K [kg/m3] | viscosity, 293.15 K [mPa·s] | viscosity, 298.15 K [mPa·s] | viscosity, 303.15 K [mPa·s]
m1 = 0.0996 | 1020.8 | 1019.4 | 1018 | 1.068 | 0.9503 | 0.8517
m1 = 0.1997 | 1043.7 | 1042.1 | 1040.4 | 1.109 | 0.9881 | 0.8863
m1 = 0.2997 | 1065.6 | 1063.8 | 1062 | 1.176 | 1.049 | 0.9414
m1 = 0.3994 | 1086.9 | 1085 | 1083.2 | 1.255 | 1.12 | 1.006
m1 = 0.4984 | 1107.7 | 1105.8 | 1103.9 | 1.34 | 1.196 | 1.075
m1 = 0.6 | 1128.9 | 1126.9 | 1125 | 1.432 | 1.279 | 1.149
m1 = 0.6981 | 1149.1 | 1147.2 | 1145.3 | 1.524 | 1.361 | 1.224
m1 = 0.7983 | 1169.6 | 1167.7 | 1165.8 | 1.621 | 1.447 | 1.301
m1 = 0.9256 | 1195.5 | 1193.7 | 1191.8 | 1.745 | 1.558 | 1.402
m1 = 1.201 | 1251.1 | 1249.5 | 1247.8 | 2.02 | 1.804 | 1.624
